IC50 data for one compound are collected here from US20250041463A1, “FLUORINE-18 LABELED COMPOSITIONS AND THEIR USE IN IMAGING OF BIOLOGICAL TISSUE” (CORNELL UNIVERSITY, priority 2018, published 2025).

The test concerns Nestin tv-a derived DIPG. In words: Cell viability reference control (dasatinib). The format is cell-based. The following applies: four parameter logistic standard curve regression, R^2=0.972.

Usually IC50 stands for the concentration at which inhibition is half-maximal. A low value points to greater potency. Compound `Cc1nc(Nc2ncc(C(=O)Nc3c(C)cccc3Cl)s2)cc(N2CCN(CCO)CC2)n1` [dasatinib] registered an IC50 of 19 ± 20 nM.
